In ChEMBL document CHEMBL1201862, “PubChem BioAssay data set” (2004):
Activity calls are given as the source filed them.

Tests used:
[1] = microbe, parasite or virus in culture; format: functional; conditions: Mycobacterium tuberculosis
[2] = molecular target: FAD-linked sulfhydryl oxidase ALR (Homo sapiens, UniProt P55789); assay: inhibitors of human ALR sulfhydryl oxidase, dose response, biochemical, H2O2 detection, luminescence, cherry-pick (AID 493248)
[3] = molecular target: Luciferin 4-monooxygenase (Photinus pyralis, UniProt P08659); assay: firefly luciferase enzyme inhibitors, dose response, biochemical, luminescence (AID 1891)
[4] = Luminescence Cell-Based Dose Confirmation HTS to Identify Inhibitors of Platelet Dense Granule Release. [Related pubchem assays: 1663 (Primary HTS), 1678 (Summary of Project)]; format: functional
[5] = Luminescence Cell-Based Dose Confirmation HTS to Identify Activators of 5'UTR Stem-Loop Driven Alpha-Synuclein mRNA Translation in H4 Neuroglioblastoma Cells. [Related pubchem assays: 1829 (Project Summary), 1814 (Primary HTS)]; format: functional
H4 = assay: Luminescence Cell-Based Dose Response HTS to Identify Activators of 5'UTR Stem-Loop Driven Prion Protein mRNA Translation in H4 Neuroglioblastoma Cells. [Related pubchem assays: 1829 (Project Summary), 1814 (Primary HTS)]; format: functional; conditions: Homo sapiens
Fatty acid synthase [6] = molecular target: T1, Fatty acid synthase (Homo sapiens, UniProt P49327); assay: FAS thioesterase domain inhibitors, dose response, biochemical, endpoint fluorescence intensity, uHTS hits (AID 624327); format: functional;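 further: fluorescence from hydrolysis of an O-methyl fluorescein acyl ester substrate by the enzyme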
Fatty acid synthase [7] = molecular target: T1, Fatty acid synthase; assay: FAS thioesterase domain inhibitors, dose response, biochemical, kinetic fluorescence intensity (AID 624326); format: functional;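 further: rate of fluorescence rise from hydrolysis of a fluorogenic O-methyl fluorescein ester substrate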
[8] = molecular target: T2, Histone-lysine N-methyltransferase NSD2 (Homo sapiens, UniProt O96028); format: biochemical
T2 sequence (O96028 whole entry): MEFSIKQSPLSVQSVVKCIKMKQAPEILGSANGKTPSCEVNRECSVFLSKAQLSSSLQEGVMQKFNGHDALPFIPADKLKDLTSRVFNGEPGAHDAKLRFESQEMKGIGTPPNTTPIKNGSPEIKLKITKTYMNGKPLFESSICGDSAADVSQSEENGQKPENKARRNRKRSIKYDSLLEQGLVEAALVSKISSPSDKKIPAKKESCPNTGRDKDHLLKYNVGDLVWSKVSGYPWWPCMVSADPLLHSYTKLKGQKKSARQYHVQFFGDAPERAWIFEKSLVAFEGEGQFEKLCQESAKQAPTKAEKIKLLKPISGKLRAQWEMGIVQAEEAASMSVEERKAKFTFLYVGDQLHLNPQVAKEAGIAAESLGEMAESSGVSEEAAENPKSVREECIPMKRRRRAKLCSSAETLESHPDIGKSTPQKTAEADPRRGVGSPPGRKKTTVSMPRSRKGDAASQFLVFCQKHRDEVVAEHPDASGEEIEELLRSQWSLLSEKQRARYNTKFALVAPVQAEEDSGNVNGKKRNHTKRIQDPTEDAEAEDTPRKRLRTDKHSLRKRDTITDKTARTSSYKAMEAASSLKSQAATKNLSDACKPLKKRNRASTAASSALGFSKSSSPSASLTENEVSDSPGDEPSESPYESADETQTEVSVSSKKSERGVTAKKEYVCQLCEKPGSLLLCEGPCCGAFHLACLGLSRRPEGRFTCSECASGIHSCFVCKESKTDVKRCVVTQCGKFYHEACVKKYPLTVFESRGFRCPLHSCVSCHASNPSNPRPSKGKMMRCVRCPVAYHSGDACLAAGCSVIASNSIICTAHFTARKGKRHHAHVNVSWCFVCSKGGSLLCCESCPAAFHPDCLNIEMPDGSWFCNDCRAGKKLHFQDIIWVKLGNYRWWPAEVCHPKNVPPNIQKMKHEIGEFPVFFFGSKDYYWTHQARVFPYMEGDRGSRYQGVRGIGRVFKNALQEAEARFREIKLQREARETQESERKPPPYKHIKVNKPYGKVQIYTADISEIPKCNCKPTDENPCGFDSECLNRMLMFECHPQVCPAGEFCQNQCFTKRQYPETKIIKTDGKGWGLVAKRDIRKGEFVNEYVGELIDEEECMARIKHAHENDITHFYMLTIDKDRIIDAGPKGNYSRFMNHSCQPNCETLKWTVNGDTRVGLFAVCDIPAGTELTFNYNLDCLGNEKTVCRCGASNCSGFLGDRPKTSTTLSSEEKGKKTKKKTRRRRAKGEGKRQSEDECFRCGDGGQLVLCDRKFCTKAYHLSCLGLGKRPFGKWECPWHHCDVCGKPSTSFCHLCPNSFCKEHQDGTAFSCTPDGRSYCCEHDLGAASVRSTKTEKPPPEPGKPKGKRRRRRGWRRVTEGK

[9] = molecular target: T3, Heat shock factor protein 1 (Mus musculus, UniProt P38532); assay: inhibition of MG132-induced HSE-luciferase signal, confirmation, cell-based, NIH3T3, luminescence, dose retest (AID 2382); format: functional;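 further: NIH3T3 fibroblasts with HSF1-driven luciferase reporter stressed by proteasome inhibitor MG132; luminescence from HSF1-driven luciferase expression after 8 hours of MG132 stress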
T3 sequence (P38532 whole entry): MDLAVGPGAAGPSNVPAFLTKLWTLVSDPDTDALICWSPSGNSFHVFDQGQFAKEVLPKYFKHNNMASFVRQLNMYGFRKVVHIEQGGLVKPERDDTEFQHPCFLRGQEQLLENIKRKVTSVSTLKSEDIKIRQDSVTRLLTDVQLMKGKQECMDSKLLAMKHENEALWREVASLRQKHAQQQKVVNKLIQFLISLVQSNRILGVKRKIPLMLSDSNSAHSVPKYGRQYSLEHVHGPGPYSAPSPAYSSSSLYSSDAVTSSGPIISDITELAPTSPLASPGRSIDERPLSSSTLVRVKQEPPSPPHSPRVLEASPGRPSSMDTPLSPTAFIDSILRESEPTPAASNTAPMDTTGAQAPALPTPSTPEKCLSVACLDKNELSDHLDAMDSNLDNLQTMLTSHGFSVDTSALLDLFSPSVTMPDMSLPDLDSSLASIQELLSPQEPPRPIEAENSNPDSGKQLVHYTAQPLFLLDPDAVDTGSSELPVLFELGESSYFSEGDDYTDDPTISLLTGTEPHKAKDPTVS

Large T antigen = Large T antigen (Simian virus 40, UniProt P03070); format: functional, Betapolyomavirus macacae;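 further: Confirmatory-stage PubChem screen for compounds that inhibit SV40 T antigen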
H9c2 = assay: cells; format: functional, cell-based; conditions: Rattus norvegicus, H9c2, Myocardium;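 further: confirmatory concentration-response retest of ultra-high-throughput screening hits for modulation of myocardial damage; cell death induced by hydrogen peroxide oxidative stress; compound pretreatment for 60 min then peroxide exposure for 2 h; potency is for protecting the cells against peroxide damage rather than for killing them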
[10] = inhibitors of firefly luciferase expression or activity, dose response, H4 neuroglioma cells, luminescence (AID 1990); format: functional, cell-based
[11] = Luminescence Cell-Based Dose Response HTS to Identify Inhibitors of 5'UTR Stem-Loop Driven Prion Protein mRNA Translation in H4 Neuroglioblastoma Cells. [Related pubchem assays: 1827 (Project Summary), 1813 (Primary HTS)]; format: functional
[12] = inhibitors of SNCA 5'UTR-driven reporter translation, confirmation, H4 neuroglioma cells, luminescence (AID 1988); format: functional, cell-based

FAD-linked sulfhydryl oxidase ALR, sequence (P55789 whole entry): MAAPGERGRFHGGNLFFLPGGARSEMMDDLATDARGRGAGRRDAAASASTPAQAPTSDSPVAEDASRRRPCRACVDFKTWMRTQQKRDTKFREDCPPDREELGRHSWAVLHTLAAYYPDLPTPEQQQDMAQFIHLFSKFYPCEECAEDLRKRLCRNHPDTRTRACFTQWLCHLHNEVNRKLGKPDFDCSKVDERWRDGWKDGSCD
T1 sequence (P49327 whole entry, the tested form may be a part): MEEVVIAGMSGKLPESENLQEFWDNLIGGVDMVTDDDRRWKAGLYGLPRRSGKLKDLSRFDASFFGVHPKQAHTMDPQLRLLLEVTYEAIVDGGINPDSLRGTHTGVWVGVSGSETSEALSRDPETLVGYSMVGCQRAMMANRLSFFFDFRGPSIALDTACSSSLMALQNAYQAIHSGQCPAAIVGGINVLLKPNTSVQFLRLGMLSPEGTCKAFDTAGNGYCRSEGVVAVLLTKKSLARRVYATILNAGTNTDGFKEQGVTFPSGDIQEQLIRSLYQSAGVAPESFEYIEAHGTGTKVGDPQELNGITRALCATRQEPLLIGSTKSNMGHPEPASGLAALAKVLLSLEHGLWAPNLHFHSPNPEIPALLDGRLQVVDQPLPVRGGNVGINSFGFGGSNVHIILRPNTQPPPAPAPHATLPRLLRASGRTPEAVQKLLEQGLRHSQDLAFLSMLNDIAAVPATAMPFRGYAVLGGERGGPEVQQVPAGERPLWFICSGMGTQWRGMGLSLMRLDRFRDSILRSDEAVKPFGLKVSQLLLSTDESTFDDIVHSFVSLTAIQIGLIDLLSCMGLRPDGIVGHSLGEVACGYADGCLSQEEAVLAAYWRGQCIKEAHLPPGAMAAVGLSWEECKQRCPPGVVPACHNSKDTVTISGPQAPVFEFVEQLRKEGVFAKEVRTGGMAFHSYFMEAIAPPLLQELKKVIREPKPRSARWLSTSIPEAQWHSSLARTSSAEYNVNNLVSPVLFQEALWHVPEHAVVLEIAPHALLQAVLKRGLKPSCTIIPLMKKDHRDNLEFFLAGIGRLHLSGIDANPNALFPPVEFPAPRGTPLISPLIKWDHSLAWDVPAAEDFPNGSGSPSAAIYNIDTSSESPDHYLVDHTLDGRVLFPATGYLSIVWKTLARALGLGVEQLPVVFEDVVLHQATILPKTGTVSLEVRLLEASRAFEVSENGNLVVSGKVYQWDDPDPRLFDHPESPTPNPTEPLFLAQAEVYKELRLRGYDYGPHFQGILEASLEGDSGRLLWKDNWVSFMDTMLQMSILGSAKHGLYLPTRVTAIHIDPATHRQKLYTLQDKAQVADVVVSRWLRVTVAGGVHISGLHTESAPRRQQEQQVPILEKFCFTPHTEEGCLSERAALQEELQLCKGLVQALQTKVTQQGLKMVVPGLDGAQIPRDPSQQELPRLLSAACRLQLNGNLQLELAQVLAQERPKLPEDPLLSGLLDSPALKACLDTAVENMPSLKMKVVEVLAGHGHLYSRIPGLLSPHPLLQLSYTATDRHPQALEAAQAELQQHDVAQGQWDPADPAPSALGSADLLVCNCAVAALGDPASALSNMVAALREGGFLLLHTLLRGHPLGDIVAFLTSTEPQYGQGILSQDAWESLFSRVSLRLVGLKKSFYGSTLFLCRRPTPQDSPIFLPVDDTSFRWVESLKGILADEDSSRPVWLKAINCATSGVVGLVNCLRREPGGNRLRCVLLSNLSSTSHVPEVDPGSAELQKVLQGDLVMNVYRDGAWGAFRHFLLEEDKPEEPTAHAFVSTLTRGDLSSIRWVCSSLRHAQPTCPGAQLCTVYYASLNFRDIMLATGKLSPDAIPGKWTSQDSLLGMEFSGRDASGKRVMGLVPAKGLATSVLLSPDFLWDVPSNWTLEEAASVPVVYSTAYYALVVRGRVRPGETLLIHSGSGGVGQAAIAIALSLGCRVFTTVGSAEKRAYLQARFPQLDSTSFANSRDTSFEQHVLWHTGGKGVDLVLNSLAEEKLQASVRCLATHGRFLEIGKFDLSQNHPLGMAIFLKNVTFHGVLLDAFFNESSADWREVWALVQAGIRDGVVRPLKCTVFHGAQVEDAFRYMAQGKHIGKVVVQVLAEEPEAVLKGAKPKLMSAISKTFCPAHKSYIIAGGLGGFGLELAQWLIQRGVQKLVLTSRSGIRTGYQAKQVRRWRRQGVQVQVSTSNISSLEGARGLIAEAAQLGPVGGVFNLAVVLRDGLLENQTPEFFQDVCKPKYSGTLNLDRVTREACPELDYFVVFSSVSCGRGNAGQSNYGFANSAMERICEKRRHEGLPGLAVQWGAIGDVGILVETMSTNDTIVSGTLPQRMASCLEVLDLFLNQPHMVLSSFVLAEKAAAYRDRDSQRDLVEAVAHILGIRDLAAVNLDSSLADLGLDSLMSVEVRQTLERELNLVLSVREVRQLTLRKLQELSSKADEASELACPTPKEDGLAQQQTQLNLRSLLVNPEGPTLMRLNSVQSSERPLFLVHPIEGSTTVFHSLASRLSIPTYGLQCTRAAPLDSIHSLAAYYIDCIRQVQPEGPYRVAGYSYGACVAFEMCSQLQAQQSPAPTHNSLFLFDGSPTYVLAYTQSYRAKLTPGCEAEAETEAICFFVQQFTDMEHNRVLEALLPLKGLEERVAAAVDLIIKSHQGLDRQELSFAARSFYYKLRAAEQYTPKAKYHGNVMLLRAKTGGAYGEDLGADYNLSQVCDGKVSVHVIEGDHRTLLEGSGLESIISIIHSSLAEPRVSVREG
Luciferin 4-monooxygenase, sequence (P08659 whole entry): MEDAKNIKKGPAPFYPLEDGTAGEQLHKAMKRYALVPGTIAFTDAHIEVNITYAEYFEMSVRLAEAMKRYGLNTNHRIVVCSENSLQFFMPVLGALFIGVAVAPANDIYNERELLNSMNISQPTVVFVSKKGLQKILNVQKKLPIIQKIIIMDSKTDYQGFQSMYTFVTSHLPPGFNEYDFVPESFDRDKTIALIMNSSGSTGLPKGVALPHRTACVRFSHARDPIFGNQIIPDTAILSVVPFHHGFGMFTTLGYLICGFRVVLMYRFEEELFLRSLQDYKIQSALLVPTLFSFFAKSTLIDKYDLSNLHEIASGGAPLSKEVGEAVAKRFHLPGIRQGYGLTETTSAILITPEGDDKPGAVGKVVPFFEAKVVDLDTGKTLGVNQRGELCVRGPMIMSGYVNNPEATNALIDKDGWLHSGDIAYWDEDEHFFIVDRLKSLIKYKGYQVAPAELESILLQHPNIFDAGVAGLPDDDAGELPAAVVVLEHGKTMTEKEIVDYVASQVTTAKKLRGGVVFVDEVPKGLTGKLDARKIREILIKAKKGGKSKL
Large T antigen, sequence (P03070 whole entry): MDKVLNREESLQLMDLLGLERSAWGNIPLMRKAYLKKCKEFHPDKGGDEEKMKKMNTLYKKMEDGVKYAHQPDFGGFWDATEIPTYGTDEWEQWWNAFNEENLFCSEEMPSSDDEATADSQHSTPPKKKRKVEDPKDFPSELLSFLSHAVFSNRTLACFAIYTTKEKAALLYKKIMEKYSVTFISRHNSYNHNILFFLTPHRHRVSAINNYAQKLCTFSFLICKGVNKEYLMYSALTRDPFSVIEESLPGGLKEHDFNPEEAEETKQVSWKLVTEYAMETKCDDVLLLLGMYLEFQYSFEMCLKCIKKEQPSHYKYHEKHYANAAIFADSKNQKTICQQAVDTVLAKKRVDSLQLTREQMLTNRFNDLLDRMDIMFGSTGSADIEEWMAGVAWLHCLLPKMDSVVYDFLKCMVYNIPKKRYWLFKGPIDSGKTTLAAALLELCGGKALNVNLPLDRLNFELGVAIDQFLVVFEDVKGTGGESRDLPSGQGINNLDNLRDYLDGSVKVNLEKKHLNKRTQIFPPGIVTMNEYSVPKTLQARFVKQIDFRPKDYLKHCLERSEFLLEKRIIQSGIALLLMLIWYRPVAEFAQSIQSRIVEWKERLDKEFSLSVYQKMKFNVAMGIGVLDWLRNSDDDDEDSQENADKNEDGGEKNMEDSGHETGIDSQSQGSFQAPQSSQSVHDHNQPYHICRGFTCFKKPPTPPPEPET

Structure (SMILES): Cc1ccc(NC(=O)C2CCN(S(=O)(=O)c3ccc4c(c3)NC(=O)C(C)S4)CC2)c(Cl)c1 (stereo not drawn)
- CC50 [1]: > 40 µM (active)

Structure (SMILES): CC(C)=NNc1nc(-c2ccccc2)cs1
- AC50 [2]: 0.601 µM (active)

Structure (SMILES): Cc1cccc(-n2c(CCn3nc(C)c([N+](=O)[O-])c3C)n[nH]c2=S)c1
- AC50 [2]: 4.3 µM (active)

Structure (SMILES): Cc1ccccc1C(=O)OCn1nnc2ccccc2c1=O
- EC50 [3]: > 112 µM (not active)
- EC50 [4]: 16.2 µM (active)

Structure (SMILES): CC(C)(C)C1CCc2c(sc3nc(SCC(N)=O)nc(N)c23)C1 (stereo not drawn)
- EC50 [5]: 27.3 µM (active)
- EC50 (H4): 24.9 µM (active)
- CC50 [1]: > 40 µM (active)

Structure (SMILES): Cc1ccc(S(=O)(=O)N2CCN(C(=O)COC(=O)c3cc([N+](=O)[O-])ccc3NCCO)CC2)c(C)c1
- IC50 (Fatty acid synthase [6]): 6.04 µM (active)
- IC50 (Fatty acid synthase [7]): 2.7 µM (active)

Structure (SMILES): CCN1CCCCC(=N/O)/C(=N/O)CCCC1
- AC50 [8]: > 20 µM (inactive)

Structure (SMILES): C=CCn1c(=O)/c(=C/c2ccc(Cl)cc2)s/c1=C(/C#N)c1nnc2n1CCCCC2
- CC50 [1]: 40 µM (active)

Structure (SMILES): Cc1ccc(S(=O)(=O)N2CCN=C2SCc2cccnc2)cc1
- AC50 [2]: 0.046 µM (active)

Structure (SMILES): COc1ccc(C(=O)Oc2ccc(/C=N/O)cc2)cc1
- EC50 [9]: > 195 µM (not active)
- AC50 [2]: 0.247 µM (active)

Structure (SMILES): CC1CCCN(C(=O)COC(=O)c2cc([N+](=O)[O-])ccc2N2CCOCC2)C1 (stereo not drawn)
- IC50 (Fatty acid synthase [6]): 2.27 µM (active)
- IC50 (Fatty acid synthase [7]): 1.91 µM (active)

Structure (SMILES): Cc1cc(F)ccc1NC(=O)c1cc(S(=O)(=O)N2CCOCC2)cn1C
- EC50 [3]: > 112 µM (not active)
- EC50 [4]: > 112 µM (not active)

Structure (SMILES): O=C(CCN1C(=O)C2C3CCC(C3)C2C1=O)Nc1ccccc1Cl (stereo not drawn)
- EC50 [3]: > 112 µM (not active)
- EC50 [4]: > 112 µM (not active)

Structure (SMILES): Cn1c(S)nnc1CCNC(=O)OC(C)(C)C
- AC50 [2]: 2.79 µM (active)

Structure (SMILES): Cn1c(SCc2cccc(Cl)c2)nc(C(F)(F)F)cc1=O
- IC50 (Fatty acid synthase [6]): 18.4 µM (active)
- IC50 (Fatty acid synthase [7]): 12.2 µM (active)

Structure (SMILES): COc1ccccc1C(=O)Nc1ccc(C2=NNC(=O)CC2C)cc1 (stereo not drawn)
- EC50 [3]: > 112 µM (not active)
- EC50 [4]: 0.361 µM (active)

Structure (SMILES): CCOC(=O)CCSc1nc2c(c(C(F)(F)F)c1C#N)CCC2
- IC50 (Fatty acid synthase [6]): 7.74 µM (active)
- IC50 (Fatty acid synthase [7]): 8.57 µM (active)

Structure (SMILES): NC(=O)C1CCN(C2=C(NS(=O)(=O)c3ccc(Cl)cc3)C(=O)c3ccccc3C2=O)CC1
- AC50 [8]: 14.1 µM (active)

Structure (SMILES): SC1=NC2(CCCCC2)NN1c1ccccc1
- AC50 [2]: 1.79 µM (active)

Structure (SMILES): O=C(Nc1ccn(Cc2ccc(F)cc2)n1)c1ccncc1
- EC50 [3]: > 112 µM (not active)
- EC50 [4]: > 112 µM (not active)

Structure (SMILES): COc1ccc(CNC(=O)C[C@H]2C[C@H](C(=O)N3CCOCC3)[C@@]3(CCC4CCCC4)c4[nH]c5ccc(Cl)cc5c4CCN3C2=O)cc1OC
- IC50 (Fatty acid synthase [6]): 1.71 µM (active)
- IC50 (Fatty acid synthase [7]): 0.878 µM (active)

Structure (SMILES): NC(=O)N1CCN(C(=O)c2ccco2)CC1
- EC50 [3]: > 112 µM (not active)
- EC50 [4]: > 112 µM (not active)

Structure (SMILES): Cc1cc(C)c([N+](=O)[O-])cc1NCC(=O)N1CCN(c2ccccc2)CC1
- IC50 (Fatty acid synthase [6]): 9.53 µM (active)
- IC50 (Fatty acid synthase [7]): 6.55 µM (active)

Structure (SMILES): COc1ccc(CN2CCN(C(=O)Cn3nc(C(=O)O)c4ccccc4c3=O)CC2)cc1F
- EC50 [3]: > 112 µM (not active)
- EC50 [4]: 7.7 µM (active)

Structure (SMILES): O=C(COC(=O)c1cc([N+](=O)[O-])ccc1N1CCOCC1)Nc1ccc(Cl)cc1
- IC50 (Fatty acid synthase [6]): 2.23 µM (active)
- IC50 (Fatty acid synthase [7]): 1.96 µM (active)

Structure (SMILES): O=C(NCc1cccnc1)C(=O)NCC(c1ccco1)N1CCN(c2ccccc2)CC1 (stereo not drawn)
- AC50 [2]: 2.78 µM (active)

Structure (SMILES): C(=N\c1ccc(Nc2ccccc2)cc1)/c1ccc2ccccc2c1
- IC50 (Large T antigen): 8.25 µM (active)

Structure (SMILES): O=C(NC12CC3CC(CC(C3)C1)C2)c1cc([N+](=O)[O-])ccc1N1CCOCC1
- IC50 (Fatty acid synthase [6]): 24.9 µM (inactive)
- IC50 (Fatty acid synthase [7]): 14.7 µM (active)

Structure (SMILES): Cc1nn(-c2ccccc2)c2nc(O)c(CNc3ccc(N4CCOCC4)cc3)cc12
- IC50 (Large T antigen): 5.01 µM (active)

Structure (SMILES): Cc1noc(NS(=O)(=O)c2ccc(NC(=O)c3cnc4n(c3=O)CCS4)cc2)c1C
- AC50 [2]: 0.255 µM (active)

Structure (SMILES): CC1Cc2ccccc2N1C(=O)Cn1nc(C(=O)O)c2ccccc2c1=O (stereo not drawn)
- IC50 (H9c2): 13.7 µM (active)

Structure (SMILES): CCN(CC(=O)Nc1c(F)cccc1F)C(=O)Cc1nnc(O)c2ccccc12
- EC50 [9]: > 195 µM (not active)
- IC50 (H9c2): > 79 µM (inactive)

Structure (SMILES): COc1cc2nc(C3CCC3)nc(N3CCN(c4ccccn4)CC3)c2cc1OC
- EC50 [10]: 15.1 µM (active)
- EC50 [11]: 14.6 µM (active)
- EC50 [12]: 15.2 µM (active)
- IC50 (H9c2): > 79 µM (inactive)

Structure (SMILES): COc1cc(C(=O)Nc2ccc(NC(=O)c3ccco3)nc2)cc(OC)c1OC
- IC50 (H9c2): 21.4 µM (active)

Structure (SMILES): COc1cccc(N2CCN(Cc3ccc(Cl)cc3)CC2)c1
- EC50 [3]: > 112 µM (not active)
- EC50 [4]: > 112 µM (not active)

Structure (SMILES): COc1ccc(Cl)cc1-c1cc(C(=O)NCc2ccc(C(F)(F)F)cc2)[nH]n1
- IC50 (Fatty acid synthase [6]): 15.4 µM (active)
- IC50 (Fatty acid synthase [7]): 17.1 µM (active)

Structure (SMILES): O=C(CNC(=O)c1ccccc1F)N/N=C/c1cc(Br)ccc1OC(=O)/C=C/c1ccco1
- IC50 (H9c2): > 79 µM (inactive)

Structure (SMILES): CC1Cc2nc(SCC(=O)N3CCCc4ccccc43)n(C)c(=O)c2S1 (stereo not drawn)
- EC50 [3]: > 112 µM (not active)
- EC50 [4]: > 112 µM (not active)
